Data published in ChEMBL document CHEMBL1201862, “PubChem BioAssay data set” (2004).
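Following 48 hours of exposure in 96-well plates, responses at five concentrations were used to interpolate endpoints linearly. GI50: concentration for 50% inhibition of growth.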 Active and inactive are the calls of the source. Rule as the data show it: active = GI50 up to about 1.1 µM and inactive = higher. *1 amine or outer side, *2 acyl side, *3 side chain or, on linkers, in order; H or OH if unused. Where a SMILES comes first, the peptide text is derived from it. Square brackets hold non-standard residues; d marks the D form. Peptide text beside a SMILES is read from it. [ ]: non-standard residue; d: D form. The star is where a group is joined. * marks the point of attachment. ξ: configuration not given here. NMeY = CN[C@@H](Cc1ccc(O)cc1)C(=O)O; Ethylenediamine = C(CN[*:2])N[*:1]; ξNMeL = CNC(CC(C)C)C(=O)O; Cbz = O=C(OCc1ccccc1)*; Lac = C[C@H](O)C(=O)O; ξA = CC(N)C(=O)O

Assays:
Assay in all cases: DTP human tumour cell line panel, 48 h
T47D = system: T47D
TK-10 = system: TK-10
SF-268 = system: SF-268
SK-OV-3 = system: SK-OV-3
IGROV-1 = system: IGROV-1
COLO 205 = system: COLO 205
HL-60 = system: HL-60
NCI-H522 = system: NCI-H522
HT-29 = system: HT-29
RPMI-8226 = system: RPMI-8226
A498 = system: A498
HOP-92 = system: HOP-92
HOP-62 = system: HOP-62
786-0 = system: 786-0
Malme-3M = system: Malme-3M
NCI-H460 = system: NCI-H460
PC-3 = system: PC-3
A549 = system: A549
SK-MEL-5 = system: SK-MEL-5
UACC-62 = system: UACC-62

Measured: GI50

CSc1c(CC(=O)O)n(Cc2ccccc2)c2ccccc12
inactive: T47D 91.6 µM | TK-10 > 100 µM | SF-268 > 100 µM | SK-OV-3 > 100 µM | IGROV-1 > 100 µM | COLO 205 > 100 µM | HL-60 > 100 µM | NCI-H522 89.3 µM | HT-29 > 100 µM | RPMI-8226 71.1 µM | A498 > 100 µM | HOP-92 > 100 µM | HOP-62 > 100 µM | 786-0 > 100 µM | Malme-3M > 100 µM | NCI-H460 60.8 µM | PC-3 > 100 µM | A549 35.8 µM | SK-MEL-5 > 100 µM | UACC-62 81.3 µM

COc1ccc(C[C@@H](C(=O)NCCNC(=O)C(CC(C)C)N(C)C(=O)[C@@H]2CCCN2C(=O)[C@H](C)O)N(C)C(=O)[C@@H]2CCCN2C(=O)[C@H](CC(C)C)NC(=O)C(C)NC(=O)OCc2ccccc2)cc1 (stereo not given in full) (Cbz-[ξA]LP[NMeY](Me)-{Ethylenediamine-ξNMeL-Pro-Lac})
inactive: T47D 72.6 µM | TK-10 > 100 µM | SF-268 > 100 µM | SK-OV-3 > 100 µM | IGROV-1 > 100 µM | COLO 205 77.6 µM | HL-60 38.4 µM | NCI-H522 > 100 µM | HT-29 72.3 µM | RPMI-8226 33.9 µM | A498 > 100 µM | HOP-92 68.9 µM | HOP-62 > 100 µM | 786-0 > 100 µM | Malme-3M > 100 µM | NCI-H460 > 100 µM | PC-3 > 100 µM | A549 > 100 µM | SK-MEL-5 33.5 µM | UACC-62 96.2 µM

NS(=O)(=O)c1ccc(Nc2c3ccccc3nc3c(C(=O)NCCCN(CCO)CCO)cccc23)cc1
inactive: T47D 15.8 µM | TK-10 36.6 µM | SF-268 21.8 µM | SK-OV-3 27.2 µM | IGROV-1 19.4 µM | COLO 205 13 µM | HL-60 > 10 µM | NCI-H522 18.2 µM | HT-29 25.6 µM | RPMI-8226 22.3 µM | A498 47.9 µM | HOP-92 26.3 µM | HOP-62 24.8 µM | 786-0 19.3 µM | Malme-3M 20.4 µM | NCI-H460 15.7 µM | PC-3 34.2 µM | A549 26.7 µM | SK-MEL-5 14.8 µM | UACC-62 17.9 µM

O=C1CC[C@@]2(O)[C@H]3Cc4ccc(-c5ccccc5)c5c4[C@@]2(CCN3CC2CC2)[C@H]1O5
inactive: T47D 17 µM | TK-10 17.6 µM | SF-268 14.3 µM | SK-OV-3 23.9 µM | IGROV-1 27.2 µM | COLO 205 17.7 µM | HL-60 17.9 µM | NCI-H522 14.7 µM | HT-29 13.7 µM | RPMI-8226 15.4 µM | A498 18.1 µM | HOP-92 16.2 µM | HOP-62 22.4 µM | 786-0 15.8 µM | Malme-3M 15.5 µM | NCI-H460 17.9 µM | PC-3 19 µM | A549 20.6 µM | SK-MEL-5 14.2 µM | UACC-62 12.2 µM

CN(C)c1ccc(NN=C2SC(=N\c3ccccc3)/C(=N/c3ccccc3)S2)cc1
inactive: T47D 12.3 µM | TK-10 > 100 µM | SF-268 > 100 µM | SK-OV-3 > 100 µM | IGROV-1 > 100 µM | COLO 205 37.4 µM | HL-60 2.97 µM | NCI-H522 6.03 µM | HT-29 15.5 µM | RPMI-8226 > 100 µM | A498 50 µM | HOP-92 22.8 µM | HOP-62 > 100 µM | 786-0 > 100 µM | Malme-3M 2.38 µM | NCI-H460 13 µM | PC-3 > 100 µM | A549 66.2 µM | SK-MEL-5 19.8 µM | UACC-62 9.38 µM

COc1ccc(C[C@@H](C(=O)N[C@@H](C)C(N)=O)N(C)C(=O)[C@@H]2CCCN2C(=O)[C@H](CC(C)C)NC(=O)C(C)NC(=O)OCc2ccccc2)cc1 (stereo not given in full) (Cbz-[ξA]LP[NMeY](Me)A-NH2)
inactive: T47D > 100 µM | TK-10 > 100 µM | SF-268 > 100 µM | SK-OV-3 > 100 µM | IGROV-1 51.8 µM | COLO 205 > 100 µM | HL-60 > 100 µM | NCI-H522 > 100 µM | HT-29 > 100 µM | RPMI-8226 > 100 µM | A498 > 100 µM | HOP-92 > 100 µM | HOP-62 > 100 µM | 786-0 > 100 µM | Malme-3M > 100 µM | NCI-H460 > 100 µM | PC-3 61.7 µM | A549 > 100 µM | SK-MEL-5 76.2 µM | UACC-62 73.1 µM
